Test results as given in patent US11046691B1 (IDEAYA BIOSCIENCES, INC., priority 2018, dated 2021).

molecular target: hMAT2A (Homo sapiens (Human), UniProt P31153); experiment: Malachite Green Assay (MAT2A enzyme inhibition); assay type: biochemical; details: hMAT2A 50 nM, substrates 500 uM each, 1 hour
Procedure: The ability of the compound of present disclosure to inhibit MAT2A enzyme was determined using the Malachite Green or Phosphate Sensor Fluorescence Assay described below.
L-methionine Substrate: Alfa Aesar catalog #J61904
ATP Substrate: Alfa Aesar cat #J60336
Malachite Green Detection Reagent: Millipore Sigma catalog #MAK307-1KT
Assay buffer: 50 mM Tris, pH 7.5/50 mM KCl/10 mM MgCl2/0.01% Brij-35/1 mM DTT/0.1% BGG
The plate was centrifuged at 1000 rpm for 1 minute and then incubated at room temperature for 1 hour. 5 μL of malachite green detection reagent was added to all the test wells and the plate was centrifuged at 1000 rpm for 1 minute and then incubated at room temperature for 30 minutes. The plate was read for absorbance at 620 nm on a plate reader (e.g., Infinite M1000).

Sequence of hMAT2A (P31153 whole entry): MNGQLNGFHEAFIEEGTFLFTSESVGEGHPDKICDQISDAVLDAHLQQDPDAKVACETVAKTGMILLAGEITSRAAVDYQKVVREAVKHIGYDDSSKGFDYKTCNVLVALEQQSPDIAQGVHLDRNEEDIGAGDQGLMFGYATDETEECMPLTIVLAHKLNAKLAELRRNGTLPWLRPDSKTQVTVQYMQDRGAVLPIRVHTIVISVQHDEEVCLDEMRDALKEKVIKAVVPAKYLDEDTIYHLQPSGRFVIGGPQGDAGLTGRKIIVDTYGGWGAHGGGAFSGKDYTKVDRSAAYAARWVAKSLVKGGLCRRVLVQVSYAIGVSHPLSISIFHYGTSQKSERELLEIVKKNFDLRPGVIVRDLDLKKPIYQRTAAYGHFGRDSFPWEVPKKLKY

IC50 | SMILES
1 to 10 µM | O=c1nc(-n2cccn2)c2ccc(Cl)cc2n1-c1ccccc1 [Example 29, 7-chloro-1-phenyl-4-(1H-pyrazol-1-yl)quinazolin-2(1H)-one]
0.5 to 1 µM | O=c1nc(NCC(F)F)c2ccc(Cl)cc2n1-c1ccccc1 [Example 31, 7-chloro-4((2,2-difluoroethyl)amino)-1-phenyl-quinazolin-2 (1H)-one]
0.2 to 0.5 µM | O=c1nc(Nc2ccccn2)c2ccc(Cl)cc2n1-c1ccccc1 [Example 32, 7-chloro-1-phenyl-4-(pyridin-2-yl-amino)quinazolin-2(1H)-one]
< 0.2 µM | CN(C)c1nc(=O)n(-c2ccccc2)c2cc(Br)ccc12 [Example 34, 7-bromo-4-(dimethylamino)-1-phenyl-quinazolin-2(1H)-one]
< 0.2 µM | CN(C)c1nc(=O)n(-c2ccccc2)c2cc(F)ccc12 [Example 35, 4-(dimethylamino)-7-fluoro-1-phenyl-quinazolin-2(1H)-one]
< 0.2 µM | CN(C)c1nc(=O)n(-c2ccc(F)cc2)c2cc(Cl)ccc12 [Example 36, 4-(dimethylamino)-7-chloro-1-(4-fluorophenyl)-hydroquinazolin-2-one]
< 0.2 µM | CN(C)c1nc(=O)n(-c2cc(O)cc(F)c2)c2cc(Cl)ccc12 [Example 37, 4-(dimethylamino)-7-chloro-1-(5-fluoro-3-hydroxyphenyl)hydro-quinazolin-2-one]
< 0.2 µM | O=c1nc(N2CCC2)c2ccc(Cl)cc2n1-c1cc(O)cc(F)c1 [Example 38, 4-azetidinyl-7-chloro-1-(5-fluoro-3-hydroxy-phenyl)hydroquinazolin-2-one]
< 0.2 µM | CN(c1nc(=O)n(-c2cccc(F)c2)c2cc(Cl)ccc12)C1CC1 [Example 39, 7-chloro-4-(cyclopropylmethylamino)-1-(3-fluorophenyl)hydroquinazolin-2-one]
0.2 to 0.5 µM | CN(C)c1nc(=O)n(-c2ccccc2)c2c(Cl)c(Cl)ccc12 [Example 42, 7,8-dichloro-4-(dimethylamino)-1-phenylquinazolin-2(1H)-one]
1 to 10 µM | Cc1c(Cl)ccc2c(N(C)C)nc(=O)n(-c3ccccc3)c12 [Example 43, 7-chloro-4-(dimethylamino)-8-methyl-1-phenyl-quinazolin-2(1H)-one]
< 0.2 µM | CNc1nc(=O)n(-c2ccccc2)c2cc(C)ccc12 [Example 44, 7-methyl-4-(methylamino)-1-phenyl-quinazolin-2(1H)-one]
< 0.2 µM | CNc1nc(=O)n(-c2ccccc2)c2cc(C3CC3)ccc12 [Example 45, 7-cyclopropyl-4-(methylamino)-1-phenylquinazolin-2(1H)-one]
< 0.2 µM | CNc1nc(=O)n(-c2cccc(O)c2)c2cc(Cl)ccc12 [Example 46, 7-chloro-1-(3-hydroxyphenyl)-4-(methylamino)-hydroquinazolin-2-one]
< 0.2 µM | CNc1nc(=O)n(-c2cccc(CCO)c2)c2cc(Cl)ccc12 [Example 47, 7-chloro-1-[3-(2-hydroxyethyl)phenyl]-4-(methylamino)-hydroquinazolin-2-one]
< 0.2 µM | CNc1nc(=O)n(-c2cccc(CCCO)c2)c2cc(Cl)ccc12 [Example 48, 7-chloro-1-[3-(3-hydroxypropyl)-phenyl]-4-(methylamino)hydro-quinazolin-2-one]
< 0.2 µM | CNc1nc(=O)n(-c2ccccc2)c2cc(OC)ccc12 [Example 49, 7-methoxy-4-(methylamino)-1-phenyl-quinazolin-2(1H)-one]
< 0.2 µM | CNc1nc(=O)n(-c2ccccc2)c2cc(C#N)ccc12 [Example 50, 4-(methylamino)-2-oxo-1-phenyl-1,2-dihydro-quinazoline-7-carbonitrile]
< 0.2 µM | CNc1nc(=O)n(-c2ccccc2)c2cc(C(F)(F)F)ccc12 [Example 51, 4-(methylamino)-1-phenyl-7-(trifluoro-methyl)-quinazolin-2(1H)-one]
< 0.2 µM | CN(C)c1nc(=O)n(-c2cccc(NS(C)(=O)=O)c2)c2cc(Cl)ccc12 [Example 52, N-(3-(7-chloro-4-(dimethylamino)-2-oxoquinazolin-1 (2H)-yl)phenyl)-methanesulfonamide]

IC50 | SMILES
< 0.2 µM | CN(C)c1nc(=O)n(-c2cccc(O)c2)c2cc(Cl)ccc12 [Example 54]
< 0.2 µM | CNc1nc(=O)n(-c2cccc(C)c2)c2cc(Cl)ccc12 [Example 55]
< 0.2 µM | CNc1nc(=O)n(-c2cccc(Cl)c2)c2cc(Cl)ccc12 [Example 56, 7-Chloro-1-(3-chlorophenyl)-4-(methylamino)hydroquinazolin-2-one]
< 0.2 µM | CNc1nc(=O)n(-c2ccccc2F)c2cc(Cl)ccc12 [Example 57, 7-chloro-1-(2-fluorophenyl)-4-(methylamino)quinazolin-2(1H)-one]
< 0.2 µM | Nc1nc(=O)n(-c2ccccc2)c2cc(Cl)ccc12 [Example 59, 4-amino-7-chloro-1-phenylquinazolin-2(1H)-one]
< 0.2 µM | CN(C)c1nc(=O)n(-c2cccc(Br)c2)c2cc(Cl)ccc12 [Example 60, 1-(3-bromophenyl)-7-chloro-4-(dimethylamino)quinazolin-2(1H)-one]
< 0.2 µM | CNc1nc(=O)n(-c2cccc(F)c2)c2cc(Cl)ccc12 [Example 61, 7-chloro-1-(3-fluorophenyl)-4-(methylamino)quinazolin-2(1H)-one]
0.2 to 0.5 µM | COc1nc(=O)n(-c2ccccc2)c2cc(Cl)ccc12 [Example 62, 7-chloro-4-methoxy-1-phenyl-quinazolin-2(1H)-one]
1 to 10 µM | CN(C)CCN(C)c1nc(=O)n(-c2ccccc2)c2cc(Cl)ccc12 [Example 63, 7-chloro-4-((2-(dimethylamino)ethyl)-(methyl)-amino)-1-phenylquinazolin-2(1H)-one]
1 to 10 µM | CN(C)CCNc1nc(=O)n(-c2ccccc2)c2cc(Cl)ccc12 [Example 64, 7-chloro-4-((2-(dimethylamino)ethyl)-amino)-1-phenylquinazolin-2(1H)-one]
< 0.2 µM | O=c1nc(N2CCCCC2)c2ccc(Cl)cc2n1-c1ccccc1 [Example 66, 7-chloro-1-phenyl-4-(piperidin-1-yl)-quinazolin-2(1H)-one]
< 0.2 µM | O=c1nc(N2CCCC2)c2ccc(Cl)cc2n1-c1ccccc1 [Example 67, 7-chloro-1-phenyl-4-(pyrrolidin-1-yl)-quinazolin-2(1H)-one]
< 0.2 µM | CNc1nc(=O)n(-c2ccccc2)c2cc(Cl)cc(OC)c12 [Example 70, 7-chloro-5-methoxy-4-(methylamino)-1-phenylquinazolin-2(1H)-one]
< 0.2 µM | CNc1nc(=O)n(-c2ccccc2)c2cc(Cl)c(OC)cc12 [Example 73, 7-chloro-6-methoxy-4-(methylamino)-1-phenylquinazolin-2(1H)-one]
< 0.2 µM | O=c1nc(N2CC(O)C2)c2ccc(Cl)cc2n1-c1ccccc1 [Example 74, 7-chloro-4-(3-hydroxyazetidin-1-yl)-1-phenylquinazolin-2(1H)-one]
< 0.2 µM | CN(C)c1nc(=O)n(-c2cccc(CCOc3ccccc3)c2)c2cc(Cl)ccc12 [Example 75, 7-chloro-4-(dimethylamino)-1-(3-(2-phenoxyethyl)phenyl)quinazolin-2(1H)-one]
< 0.2 µM | COc1cccc(-n2c(=O)nc(N(C)C)c3ccc(Cl)cc32)c1 [Example 76]
< 0.2 µM | CN(C)c1nc(=O)n(-c2cccc(CO)c2)c2cc(Cl)ccc12 [Example 77]
< 0.2 µM | CN(C)c1nc(=O)n(-c2cccc(C#N)c2)c2cc(Cl)ccc12 [Example 81, 3-[4-(dimethylamino)-7-chloro-2-oxohydroquinazolinyl]benzenecarbo-nitrile]
< 0.2 µM | N#CC1CN(c2nc(=O)n(-c3cccc(F)c3)c3cc(Cl)ccc23)C1 [Example 82, 1-(7-chloro-1-(3-fluorophenyl)-2-oxo-1,2-dihydroquinazolin-4-yl)azetidine-3-carbonitrile]
